Assay results as given in patent US9476099B2 (TRUSTEES OF DARTMOUTH COLLEGE, priority 2012, dated 2016).
“Also recorded” adds a separate entry of the source.

Legend:
[1] = system: colorectal cancer, cancer of the head and neck, renal carcinoma, or malignant melanoma; conditions: 75 mg/m^2, 3 treatments in one day, repeated once a week for 5 weeks; Abele et al. 1987; cited from earlier work
833K cells = assay: Cell-Titre Glo viable cell growth and survival, 3 day decitabine; assay type: cell-based; conditions: Homo sapiens, 72 h, 3 day treatment, FIG. 1, read-out: IC50, growth inhibition
Experimental: (§1) Indicated doses of decitabine were added fresh each day for three days to exponentially growing cultures. Viable cell growth and survival were measured. Data are normalized to no drug treatment. EC cells are NT2/D1, NT2D1/R1, 833K, 833KCP, and Tera-1. Data are the average of 3 experiments in biological duplicate except for MCF-7 cells, which were assayed twice. Error bars are standard deviation (S.D.).
(§2) Cell growth and viability of five EC cell lines (NT2/D1, NT2D1/R1, 833K, 833KCP, and Tera-1) were determined, including two cell lines that are cisplatin-resistant (NT2/D1-R1 and 833KCP). Three control somatic tumor cell lines were also tested (HCT116, MCF7 and U2OS). […] Viable cell growth and survival were measured using Cell-Titre Glo (Promega) assays. […] These higher values are similar to the values shown in FIG. 1 for somatic tumor cell lines (MCF7, U2OS and HCT116).
(§3) NT2/D1, NT2D1-R1, 833K, 833K-CP, Tera-1, U20S, and HCT116 cells were cultured in DMEM with 10% FBS supplemented with glutamine and antibiotics except for MCF7 cells that were cultured in F12-DMEM. The derivation of the NT2/D1-resistant NT2/D1-R1 cell line has been previously described (Curtin et al. 2001. Oncogene 20:2559-2569; Kerley-Hamilton et al. 2007. Biochim. Biophys. Acta 1769:209-219). Cells were treated with the indicated dosages of 5-azadeoxycytidine (5-aza-CdR) for 3 days. This drug was replenished each day. […]

833K-CP cells = assay: as above; assay type: cell-based; conditions: 2.5 nM, FIG. 1
Experimental: as §1, §2, §3

[2] = system: gene promoters in NT2/D1 cells; assay: Global DNA promoter methylation analysis, HumanMethylation27 BeadChip; assay type: cell-based, human; conditions: 3 day low dose decitabine
Experimental: However, methylation changes were less robust in the experiments in NT2/D1 cells. Only 12 genes were identified as having significant decreases in promoter methylation. […] These six genes included RIN1, SOX15, TLR4, GPER, TRIM54, and CD164L2.
DNA methylation analysis was performed in samples in triplicate using the […] […] assay with the HumanMethylation27 BeadChip ([…]) and the BeadChip was scanned on the BeadArray Reader ([…]), according to the manufacturer's instructions. Raw data was normalized and analyzed with Genome Studio software ([…]). The HumanMethylation27 BeadChip assays 27,578 CpGs covering more than 14,000 genes, mostly from promoter regions. […] Hierarchical clustering was performed as stated above. HumanMethylation27 BeadChip data and gene expression microarray data were submitted to NCBI GEO.

NT2/D1 cells = assay: Cell-Titre Glo viable cell growth and survival, 3 day decitabine; assay type: cell-based; conditions: 72 h, read-out: IC50, growth inhibition
Experimental: as §1, §2
(§4) NT2/D1, NT2D1-R1, 833K, 833K-CP, Tera-1, U20S, and HCT116 cells were cultured in DMEM with 10% FBS supplemented with glutamine and antibiotics except for MCF7 cells that were cultured in F12-DMEM. The derivation of the NT2/D1-resistant NT2/D1-R1 cell line has been previously described (Curtin et al. 2001. Oncogene 20:2559-2569; Kerley-Hamilton et al. 2007. Biochim. Biophys. Acta 1769:209-219). Cells were treated with the indicated dosages of 5-azadeoxycytidine (5-aza-CdR) for 3 days. This drug was replenished each day. Cisplatin (Bristol Laboratories) treatments were performed at the concentrations and time points indicated. To assess cell proliferation and survival, CELL-TITRE GLO (Promega) assays were performed.
(§5) Cells were cultured in DMEM media (Gibco) with 10% FBS. Decitabine was added fresh each day. Lentiviral control cells and the stable shRNA DNMT3B knockdown cell line (NT2/D1-R1-sh84) were described previously (Beyrouthy et al. 2009. Cancer Res. 69:9360-9366). DNMT3B knockdown was greater than 90% as confirmed by western blot analysis. Cell proliferation and survival were assessed with the CELL-TITRE GLO assay (Promega). Cell cycle analysis with propidium iodine has been previously described (Kerley-Hamilton et al. 2005. Oncogene 24:6090-6100).

NT2/D1-R1 cells [3] = assay: as above; assay type: cell-based; conditions: 10 nM, FIG. 1
Experimental: as §1, §2, §4, §5

NT2/D1-R1 cells [4] = assay: Apoptosis by PARP cleavage and sub G1 DNA content; assay type: cell-based; conditions: decitabine 10 nM, three days; NT2/D1-R1
Experimental: Importantly, decitabine-mediated H2AX activation also occurs in the presence of the caspase 3 inhibitor (Z-VAD-FMK) at concentrations that inhibit PARP cleavage.
as §5
SYBR green-based real-time PCR (Applied Biosystems) was employed using the ddCT method normalized to GAPDH. For western blot analysis cells were lysed in radioimmune precipitation buffer and separated by SDS-PAGE. Antibodies to actin (sc01615, Santa Cruz), 139-H2AX (Cell Signaling), PARP (c-2-10, Biomol International) and p53 (D0-1, Santa Cruz) were used.

Nc1ncn([C@H]2C[C@H](O)[C@@H](CO)O2)c(=O)n1 [decitabine, 5-aza-deoxycytidine]
efficacy against cancer in patients [1]: no efficacy
IC50 (833K cells): 5 to 25 nM
inhibition at 0.0025 µM (833K-CP cells): 10%
genes with significant decreases in promoter methylation [2]: 12 genes
IC50 (NT2/D1 cells): 5 to 25 nM
inhibition of proliferation versus control (NT2/D1-R1 cells [3]): 10%
apoptotic responses (PARP cleavage, sub G1 DNA content with G2 arrest) (NT2/D1-R1 cells [4]): apoptotic responses; also recorded: induced apoptosis
